Source: US11564928B1, “Cannabinoid receptor type 2 (CB2) modulators and uses thereof” (Teon Therapeutics, Inc., priority 2020, dated 2023)
Where two headings read alike, the source gives them in different places.

Legend:
human recombinant CB1R = human recombinant CB1R (Homo sapiens (Human), UniProt P21554); test: CB1 receptor binding assay ([3H]CP-55,940 displacement, HEK-293 membranes)
Summary of the method: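 Membranes from HEK-293 cells expressing human recombinant CB1R or CB2R were incubated with [3H]CP-55,940 and compound for 120 min at 37 °C in duplicate. The CB2R incubation buffer was 50 mM Tris-HCl, 5 mM MgCl2, 1 mM CaCl2, 0.2% BSA, pH 7.4. Bound radioactivity was filtered and counted, and IC50 was converted to Ki by Cheng–Prusoff.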

human CB2 receptor = human CB2 receptor (Homo sapiens (Human), UniProt P34972); test: CB2 receptor binding assay ([3H]CP-55,940 displacement, HEK-293 membranes)
[1] = membranes of HEK-293 cells with human recombinant CB1R, [3H]CP-55,940, class symbols, read-out: CB1 IC50
[2] = membranes of HEK-293 cells with human recombinant CB2R, [3H]CP-55,940, class symbols, read-out: CB2 IC50
[3] = membranes of HEK-293 cells with human recombinant CB1R, [3H]CP-55,940, read-out: CB1 IC50
[4] = membranes of HEK-293 cells with human recombinant CB2R, [3H]CP-55,940, read-out: CB2 IC50

Chain of human recombinant CB1R (P21554 whole entry): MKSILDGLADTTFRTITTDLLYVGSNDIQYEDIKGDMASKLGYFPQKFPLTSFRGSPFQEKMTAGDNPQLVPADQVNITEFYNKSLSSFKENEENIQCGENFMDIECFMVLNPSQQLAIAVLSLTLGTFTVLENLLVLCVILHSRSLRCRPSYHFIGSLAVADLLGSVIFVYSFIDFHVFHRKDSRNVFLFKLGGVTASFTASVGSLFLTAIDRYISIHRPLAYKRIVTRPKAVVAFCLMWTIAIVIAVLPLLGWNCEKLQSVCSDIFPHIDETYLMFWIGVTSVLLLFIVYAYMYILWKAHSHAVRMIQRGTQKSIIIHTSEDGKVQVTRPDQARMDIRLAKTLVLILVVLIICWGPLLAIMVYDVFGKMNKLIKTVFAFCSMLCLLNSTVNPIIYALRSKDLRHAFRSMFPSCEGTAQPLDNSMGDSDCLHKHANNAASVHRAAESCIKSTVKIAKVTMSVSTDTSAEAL
Chain of human CB2 receptor (P34972 whole entry): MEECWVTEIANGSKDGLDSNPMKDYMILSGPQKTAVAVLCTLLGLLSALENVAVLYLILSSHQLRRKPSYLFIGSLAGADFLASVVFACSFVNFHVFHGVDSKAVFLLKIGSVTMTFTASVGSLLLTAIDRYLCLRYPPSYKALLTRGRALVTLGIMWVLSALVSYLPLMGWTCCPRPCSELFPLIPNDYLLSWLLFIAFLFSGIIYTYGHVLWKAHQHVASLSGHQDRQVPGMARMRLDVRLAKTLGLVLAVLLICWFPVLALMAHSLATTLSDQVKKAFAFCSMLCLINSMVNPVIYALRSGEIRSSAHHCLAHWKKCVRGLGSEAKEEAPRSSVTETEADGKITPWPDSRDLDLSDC

Structure (SMILES)	IC50 (human recombinant CB1R; [1]) [nM]	IC50 (human CB2 receptor) [nM]	IC50 (human CB2 receptor; [2]) [nM]	other results
O=C(NC12CC(C1)C2)c1c(O)c2cc(C3=CCCC3)cnc2n(CCN2CCOCC2)c1=O [Compound 125, N-(bicyclo[1.1.1]pentan-1-yl)-6-(cyclopent-1-en-1-yl)-4-hydroxy-1-(2-morpholinoethyl)-2-oxo-1,2-dihydro-1,8-naphthyridine-3-carboxamide]	> 1000	100 to 999	–	–
CS(=O)(=O)c1ccc(-c2cnc3c(c2)cc(C(=O)NC2CC4(CCC4)C2)c(=O)n3Cc2ccc(F)cc2)cc1 [Compound 68, 1-(4-fluorobenzyl)-6-(4-(methylsulfonyl)phenyl)-2-oxo-N-(spiro[3.3]heptan-2-yl)-1,2-dihydro-1,8-naphthyridine-3-carboxamide]	> 1000	100 to 999	–	–
Cc1c(C(=O)NC2CCC(C)CC2)c(=O)n(CCN2CCOCC2)c2ncc(Br)cc12 (stereo not drawn) [Compound 72, 6-bromo-4-methyl-N-(4-methylcyclohexyl)-1-(2-morpholinoethyl)-2-oxo-1,2-dihydro-1,8-naphthyridine-3-carboxamide]	> 1000	–	< 100	–
O=C(NC1(CO)CCCCC1)c1c(O)c2cccnc2n(Cc2ccc(F)cc2)c1=O [Compound 145, 1-[(4-fluorophenyl)methyl]-4-hydroxy-N-[1-(hydroxymethyl)cyclohexyl]-2-oxo-1,8-naphthyridine-3-carboxamide]	> 1000	–	< 100	–
O=C(NC1CC2(CCC2)C1)c1cc2cc(-c3ccccn3)cnc2n(CCN2CCOCC2)c1=O [Compound 34, 1-(2-morpholinoethyl)-2-oxo-6-(pyridin-2-yl)-N-(spiro[3.3]heptan-2-yl)-1,2-dihydro-1,8-naphthyridine-3-carboxamide]	–	–	–	IC50 (human recombinant CB1R; [3]): 184 nM; IC50 (human CB2 receptor; [4]): 1 nM
O=C(NC1CC2(CCC2)C1)c1c(O)c2cc(-c3ccc(OC(F)F)cn3)cnc2n(CCN2CCOCC2)c1=O [Compound 25, 6-(5-(difluoromethoxy)pyridin-2-yl)-4-hydroxy-1-(2-morpholinoethyl)-2-oxo-N-(spiro[3.3]heptan-2-yl)-1,2-dihydro-1,8-naphthyridine-3-carboxamide]	> 1000	–	> 1000	–
O=C(NC1CC2(CCC2)C1)c1cc2cc(-c3ccc(F)cc3)cnc2n(CCN2CCOCC2)c1=O [Compound 32, 6-(4-fluorophenyl)-1-(2-morpholinoethyl)-2-oxo-N-(spiro[3.3]heptan-2-yl)-1,2-dihydro-1,8-naphthyridine-3-carboxamide]	–	–	–	IC50 (human recombinant CB1R; [3]): 39 nM; IC50 (human CB2 receptor; [4]): 0.8 nM
CC12CC(NC(=O)c3c(O)c4cc(-c5ccc(F)cc5)cnc4n(CCN4CCOCC4)c3=O)(C1)C2 [Compound 110, 6-(4-fluorophenyl)-4-hydroxy-N-(3-methylbicyclo[1.1.1]pentan-1-yl)-1-(2-morpholinoethyl)-2-oxo-1,2-dihydro-1,8-naphthyridine-3-carboxamide]	–	100 to 999	–	IC50 (human recombinant CB1R): 100 to 999 nM
O=C(NC12CC(C1)C2)c1c(O)c2cc(-c3cccnc3)cnc2n(CCN2CCOCC2)c1=O [Compound 123, N-(bicyclo[1.1.1]pentan-1-yl)-4-hydroxy-1-(2-morpholinoethyl)-2-oxo-6-(pyridin-3-yl)-1,2-dihydro-1,8-naphthyridine-3-carboxamide]	> 1000	–	> 1000	–
O=C(NC12CCC(CC1)CC2)c1c(O)c2cc(-c3ccc(F)cc3)cnc2n(CCN2CCOCC2)c1=O [Compound 116, N-(bicyclo[2.2.2]octan-1-yl)-6-(4-fluorophenyl)-4-hydroxy-1-(2-morpholinoethyl)-2-oxo-1,2-dihydro-1,8-naphthyridine-3-carboxamide]	–	–	–	IC50 (human recombinant CB1R; [3]): 1480 nM; IC50 (human CB2 receptor; [4]): 31 nM
O=C(NC12CC(C1)C2)c1c(O)c2cccnc2n(Cc2ccc(F)cc2)c1=O [Compound 139, N-(1-bicyclo[1.1.1]pentanyl)-1-[(4-fluorophenyl)methyl]-4-hydroxy-2-oxo-1,8-naphthyridine-3-carboxamide]	> 1000	–	> 1000	–
COC(=O)C(C)(C)NC(=O)c1c(O)c2cc(-c3ccc(F)cc3)cnc2n(CCN2CCOCC2)c1=O [Compound 119, methyl 2-(6-(4-fluorophenyl)-4-hydroxy-1-(2-morpholinoethyl)-2-oxo-1,2-dihydro-1,8-naphthyridine-3-carboxamido)-2-methylpropanoate]	> 1000	100 to 999	–	–
O=C(NC12CC(C1)C2)c1c(O)c2nccnc2n(Cc2ccc(F)cc2)c1=O [Compound 147, N-(bicyclo[1.1.1]pentan-1-yl)-5-(4-fluorobenzyl)-8-hydroxy-6-oxo-5,6-dihydropyrido[2,3-b]pyrazine-7-carboxamide]	> 1000	–	> 1000	–
O=C(NC1CC2(CCC2)C1)c1c(O)c2cc(Br)cnc2n(Cc2ccc(F)cc2)c1=O [Compound 2, 6-bromo-1-(4-fluorobenzyl)-4-hydroxy-2-oxo-N-(spiro[3.3]heptan-2-yl)-1,2-dihydro-1,8-naphthyridine-3-carboxamide]	> 1000	100 to 999	–	–
CC(NC(=O)c1c(O)c2cc(Br)cnc2n(Cc2ccc(F)cc2)c1=O)c1ccc(C#N)cc1 (stereo not drawn) [Compound 3, 6-bromo-N-(1-(4-cyanophenyl)ethyl)-1-(4-fluorobenzyl)-4-hydroxy-2-oxo-1,2-dihydro-1,8-naphthyridine-3-carboxamide]	> 1000	100 to 999	–	–
O=C(NC12CC(C1)C2)c1c(O)c2cc(C3CCC3)cnc2n(CCN2CCOCC2)c1=O [Compound 127, N-(bicyclo[1.1.1]pentan-1-yl)-6-cyclobutyl-4-hydroxy-1-(2-morpholinoethyl)-2-oxo-1,2-dihydro-1,8-naphthyridine-3-carboxamide]	> 1000	–	> 1000	–
CC1CCC(NC(=O)c2c(O)c3cc(-c4ccc(C5CC5)cc4)cnc3n(CCN3CCOCC3)c2=O)CC1 (stereo not drawn) [Compound 17, 6-(4-cyclopropylphenyl)-4-hydroxy-N-(4-methylcyclohexyl)-1-(2-morpholinoethyl)-2-oxo-1,2-dihydro-1,8-naphthyridine-3-carboxamide]	> 1000	100 to 999	–	–
C[C@H]1CC[C@H](NC(=O)c2c(O)c3cc(-c4ccc(OC(F)F)cc4)cnc3n(CCN3CCOCC3)c2=O)CC1 [Compound 155, 6-(4-(difluoromethoxy)phenyl)-4-hydroxy-N-((1R,4R)-4-methylcyclohexyl)-1-(2-morpholinoethyl)-2-oxo-1,2-dihydro-1,8-naphthyridine-3-carboxamide]	> 1000	–	> 1000	–
O=C(NC1CC2(CCC2)C1)c1cc2cc(Br)cnc2n(Cc2cccnc2)c1=O [Compound 96, 6-bromo-2-oxo-1-(pyridin-3-ylmethyl)-N-(spiro[3.3]heptan-2-yl)-1,2-dihydro-1,8-naphthyridine-3-carboxamide]	> 1000	–	< 100	–
COc1ccc(-c2cnc3c(c2)c(O)c(C(=O)NC2CCCCC2)c(=O)n3CCN2CCOCC2)cc1 [Compound 152, N-cyclohexyl-4-hydroxy-6-(4-methoxyphenyl)-1-(2-morpholinoethyl)-2-oxo-1,2-dihydro-1,8-naphthyridine-3-carboxamide]	> 1000	100 to 999	–	–
CC(NC(=O)c1cc2cc(-c3ccc(C#N)cn3)cnc2n(CCN2CCOCC2)c1=O)c1ccc(C#N)cc1 (stereo not drawn) [Compound 41, N-(1-(4-cyanophenyl)ethyl)-6-(5-cyanopyridin-2-yl)-1-(2-morpholinoethyl)-2-oxo-1,2-dihydro-1,8-naphthyridine-3-carboxamide]	> 1000	100 to 999	–	–
CC(C)(CO)NC(=O)c1c(O)c2cccnc2n(Cc2ccc(F)cc2)c1=O [Compound 140, 1-[(4-fluorophenyl)methyl]-4-hydroxy-N-(2-hydroxy-1,1-dimethyl-ethyl)-2-oxo-1,8-naphthyridine-3-carboxamide]	> 1000	100 to 999	–	–
COc1ccc(-c2cnc3c(c2)c(O)c(C(=O)N[C@@H](C)c2ccc(F)cc2)c(=O)n3CCN2CCOCC2)cc1 [Compound 151, (S)—N-(1-(4-fluorophenyl)ethyl)-4-hydroxy-6-(4-methoxyphenyl)-1-(2-morpholinoethyl)-2-oxo-1,2-dihydro-1,8-naphthyridine-3-carboxamide]	> 1000	–	> 1000	–
O=C(NC12CC(C1)C2)c1c(O)c2cc(C3CCCC3)cnc2n(CCN2CCOCC2)c1=O [Compound 126, N-(bicyclo[1.1.1]pentan-1-yl)-6-cyclopentyl-4-hydroxy-1-(2-morpholinoethyl)-2-oxo-1,2-dihydro-1,8-naphthyridine-3-carboxamide]	> 1000	–	> 1000	–
COc1ccc(-c2cnc3c(c2)cc(C(=O)NC2CCC4(CC2)CC4)c(=O)n3CCN2CCOCC2)cc1 [Compound 28, 6-(4-methoxyphenyl)-1-(2-morpholinoethyl)-2-oxo-N-(spiro[2.5]octan-6-yl)-1,2-dihydro-1,8-naphthyridine-3-carboxamide]	–	–	–	IC50 (human recombinant CB1R; [3]): > 10000 nM; IC50 (human CB2 receptor; [4]): 0.7 nM
C[C@H]1CC[C@@H](NC(=O)c2c(O)c3cc(-c4ccc(F)cc4)ccc3n(CCN3CCOCC3)c2=O)CC1 [Compound 159, 6-(4-fluorophenyl)-4-hydroxy-N-((1s,4S)-4-methylcyclohexyl)-1-(2-morpholinoethyl)-2-oxo-1,2-dihydroquinoline-3-carboxamide]	–	–	< 100	IC50 (human recombinant CB1R): 100 to 999 nM
C[C@@H](NC(=O)c1cc2cc(Br)cnc2n(Cc2ccc(F)cc2)c1=O)c1ccc(F)cc1 [Compound 87, (R)-6-bromo-1-(4-fluorobenzyl)-N-(1-(4-fluorophenyl)ethyl)-2-oxo-1,2-dihydro-1,8-naphthyridine-3-carboxamide]	–	–	–	IC50 (human recombinant CB1R; [3]): 4580 nM; IC50 (human CB2 receptor; [4]): 5 nM
